According to patent US20120177698A1, “AGGREGATES WITH INCREASED DEFORMABILITY, COMPRISING AT LEAST THREE AMPHIPATS, FOR IMPROVED TRANSPORT THROUGH SEMI-PERMEABLE BARRIERS AND FOR THE NON-INVASIVE DRUG APPLICATION IN VIVO, ESPECIALLY THROUGH THE SKIN” (priority 2002, published 2012):

Experiment: Barrier transport resistance, simple experimental method (SEM), filtration through 0.2 micrometer filter
Assay type: physicochemical
Conditions: Examples 121-129; relative SDS concentration in SPC/Tween 80 bilayer; some uncertainty in the 2-6 mol % region
From the text: In first approximation one relies on simple experimental method (SEM) and takes barrier transport resistance (in arbitrary units) to be proportional to the pressure (in arbitrary units) needed to drive a suspension of relatively large vesicles through a 0.2 micrometer filter with good efficacy. […] Barrier penetrability, which in older publications is called permeability, is identified with inverse barrier resistance value. […] Drug Delivery Rev. 18:349-378 (1996).
Transport (pore penetration) capability. […] The trend is enhanced by the presence of sodium dodecylsulphate in the mixed lipid aggregates. The later shifts the minimum amount of Tween needed to cross the semi-permeable barrier to increasingly lower relative concentration values.
Transport ability ([…] capability and adaptability) of aggregate suspension. To characterise the resistance of semi-permeable barrier to suspension flux (=transbarrier flux), the same method as in examples 1-120 was used. The resistance was measured as a function of relative SDS concentration in bilayer, to determine minimum amount of this latter surfactant that is needed to maximise suspension flux across the barrier and minimises the barrier transport resistance value. […] This is consistent with the results of first test series (examples 1-120) except in that the measured resistance values are now somewhat higher. […]

## CCCCCCCCCCCCOS(=O)(=O)[O-].[Na+] [SDS, Sodium dodecylsulphate]
  threshold limit: minimum amount of SDS needed to minimise barrier transport resistance: around 6 mol-%
